Experiment [1] concerns the target T1, Alpha-1A adrenergic receptor (Homo sapiens, UniProt P35348).
T1 sequence (P35348 whole entry): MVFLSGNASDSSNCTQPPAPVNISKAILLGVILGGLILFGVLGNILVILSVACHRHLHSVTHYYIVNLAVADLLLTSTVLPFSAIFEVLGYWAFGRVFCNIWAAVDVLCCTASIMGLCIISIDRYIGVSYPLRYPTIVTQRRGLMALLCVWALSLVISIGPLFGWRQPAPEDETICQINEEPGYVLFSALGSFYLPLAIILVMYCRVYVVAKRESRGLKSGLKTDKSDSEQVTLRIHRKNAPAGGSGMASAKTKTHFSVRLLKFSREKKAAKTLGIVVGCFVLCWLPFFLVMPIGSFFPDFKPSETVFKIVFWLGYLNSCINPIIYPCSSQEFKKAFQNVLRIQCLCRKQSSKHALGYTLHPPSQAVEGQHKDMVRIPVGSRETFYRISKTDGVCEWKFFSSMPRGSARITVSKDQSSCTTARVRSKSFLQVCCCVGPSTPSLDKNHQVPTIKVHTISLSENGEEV

The target of experiment [2] is Mu-type opioid receptor (Homo sapiens, UniProt P35372).
Mu-type opioid receptor, sequence (P35372 whole entry): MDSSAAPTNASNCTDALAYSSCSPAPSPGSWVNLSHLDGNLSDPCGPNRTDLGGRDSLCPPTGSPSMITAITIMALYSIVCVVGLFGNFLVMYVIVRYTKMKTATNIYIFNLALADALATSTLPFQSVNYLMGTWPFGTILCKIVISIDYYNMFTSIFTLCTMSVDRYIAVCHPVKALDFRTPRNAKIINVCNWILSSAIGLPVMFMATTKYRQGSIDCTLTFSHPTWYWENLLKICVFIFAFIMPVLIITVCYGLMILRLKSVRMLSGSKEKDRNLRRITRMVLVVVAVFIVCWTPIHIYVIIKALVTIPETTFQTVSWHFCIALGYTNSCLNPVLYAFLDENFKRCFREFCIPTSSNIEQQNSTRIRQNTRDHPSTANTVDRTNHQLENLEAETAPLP
Experiment [3] concerns the target T2, Androgen receptor (Rattus norvegicus, UniProt P15207).
T2 sequence (P15207 whole entry): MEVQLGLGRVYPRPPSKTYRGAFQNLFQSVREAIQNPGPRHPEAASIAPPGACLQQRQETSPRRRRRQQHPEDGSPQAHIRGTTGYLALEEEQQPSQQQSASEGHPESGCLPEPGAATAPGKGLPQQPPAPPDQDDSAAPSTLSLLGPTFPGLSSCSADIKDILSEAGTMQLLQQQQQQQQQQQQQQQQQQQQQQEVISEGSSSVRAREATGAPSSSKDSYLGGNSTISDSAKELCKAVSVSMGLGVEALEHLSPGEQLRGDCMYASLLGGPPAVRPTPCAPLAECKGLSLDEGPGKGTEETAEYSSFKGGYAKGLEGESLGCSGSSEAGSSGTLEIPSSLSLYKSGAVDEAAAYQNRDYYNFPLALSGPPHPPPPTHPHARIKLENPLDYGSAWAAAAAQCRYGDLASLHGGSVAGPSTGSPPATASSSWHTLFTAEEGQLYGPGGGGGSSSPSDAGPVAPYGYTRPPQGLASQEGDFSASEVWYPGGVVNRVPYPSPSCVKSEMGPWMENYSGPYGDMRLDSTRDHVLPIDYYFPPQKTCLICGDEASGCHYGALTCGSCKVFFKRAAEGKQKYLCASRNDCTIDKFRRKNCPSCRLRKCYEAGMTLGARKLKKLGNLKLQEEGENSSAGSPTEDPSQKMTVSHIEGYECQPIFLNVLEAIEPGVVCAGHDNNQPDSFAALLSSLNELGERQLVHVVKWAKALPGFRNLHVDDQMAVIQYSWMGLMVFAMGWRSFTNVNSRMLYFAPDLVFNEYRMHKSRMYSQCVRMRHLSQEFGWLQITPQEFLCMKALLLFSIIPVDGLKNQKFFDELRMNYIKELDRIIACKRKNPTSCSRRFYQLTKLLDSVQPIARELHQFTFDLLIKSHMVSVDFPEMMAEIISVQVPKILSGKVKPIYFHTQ
In kind it is functional.

The target of experiment [4] is T3, Muscarinic acetylcholine receptor M2 (Homo sapiens, UniProt P08172).
T3 sequence (P08172 whole entry): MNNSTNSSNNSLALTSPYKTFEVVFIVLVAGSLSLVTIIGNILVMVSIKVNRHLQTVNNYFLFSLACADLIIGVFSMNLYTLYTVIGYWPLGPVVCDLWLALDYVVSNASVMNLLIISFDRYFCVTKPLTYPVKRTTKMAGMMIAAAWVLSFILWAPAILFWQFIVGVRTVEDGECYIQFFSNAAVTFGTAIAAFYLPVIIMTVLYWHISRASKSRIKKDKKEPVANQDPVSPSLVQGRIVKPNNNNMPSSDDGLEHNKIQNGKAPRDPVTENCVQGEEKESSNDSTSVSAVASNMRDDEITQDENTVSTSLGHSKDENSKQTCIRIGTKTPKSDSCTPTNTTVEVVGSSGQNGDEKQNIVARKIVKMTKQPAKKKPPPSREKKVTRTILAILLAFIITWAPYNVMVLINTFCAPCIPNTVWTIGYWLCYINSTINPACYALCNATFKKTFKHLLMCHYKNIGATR
In kind it is functional, cell-based.

Experiment [5] deals with Histamine H2 receptor (Homo sapiens, UniProt P25021). In kind it is functional, cell-based.
Histamine H2 receptor, sequence (P25021 whole entry): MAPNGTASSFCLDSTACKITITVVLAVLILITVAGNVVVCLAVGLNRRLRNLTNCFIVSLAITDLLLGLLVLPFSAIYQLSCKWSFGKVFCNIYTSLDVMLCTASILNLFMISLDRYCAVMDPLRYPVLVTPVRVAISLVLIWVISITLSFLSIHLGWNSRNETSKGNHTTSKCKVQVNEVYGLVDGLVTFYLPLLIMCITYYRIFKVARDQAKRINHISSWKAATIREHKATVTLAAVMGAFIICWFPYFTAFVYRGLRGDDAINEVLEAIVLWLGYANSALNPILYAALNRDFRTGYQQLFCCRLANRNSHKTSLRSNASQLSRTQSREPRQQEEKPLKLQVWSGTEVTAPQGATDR
Experiment [6] concerns the target T4, Cannabinoid receptor 1 (Homo sapiens, UniProt P21554).
The target in experiment [7] is Gamma-aminobutyric acid receptor subunit alpha-1 (Rattus norvegicus, UniProt P62813). In kind it is functional.
Gamma-aminobutyric acid receptor subunit alpha-1, sequence (P62813 whole entry): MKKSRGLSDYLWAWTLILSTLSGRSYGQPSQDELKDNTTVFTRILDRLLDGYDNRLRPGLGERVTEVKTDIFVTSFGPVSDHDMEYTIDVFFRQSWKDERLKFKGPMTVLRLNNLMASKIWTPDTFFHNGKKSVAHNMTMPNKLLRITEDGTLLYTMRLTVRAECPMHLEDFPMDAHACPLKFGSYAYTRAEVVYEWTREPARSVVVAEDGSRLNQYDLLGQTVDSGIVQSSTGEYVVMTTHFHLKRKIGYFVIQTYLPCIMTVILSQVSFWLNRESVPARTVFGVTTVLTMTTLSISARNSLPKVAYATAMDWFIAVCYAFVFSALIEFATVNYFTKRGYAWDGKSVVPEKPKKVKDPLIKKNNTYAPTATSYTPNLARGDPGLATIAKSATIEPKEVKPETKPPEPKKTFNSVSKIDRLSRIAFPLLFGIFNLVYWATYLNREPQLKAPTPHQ
The target in experiment [8] is D(3) dopamine receptor (Homo sapiens, UniProt P35462).
D(3) dopamine receptor, sequence (P35462 whole entry): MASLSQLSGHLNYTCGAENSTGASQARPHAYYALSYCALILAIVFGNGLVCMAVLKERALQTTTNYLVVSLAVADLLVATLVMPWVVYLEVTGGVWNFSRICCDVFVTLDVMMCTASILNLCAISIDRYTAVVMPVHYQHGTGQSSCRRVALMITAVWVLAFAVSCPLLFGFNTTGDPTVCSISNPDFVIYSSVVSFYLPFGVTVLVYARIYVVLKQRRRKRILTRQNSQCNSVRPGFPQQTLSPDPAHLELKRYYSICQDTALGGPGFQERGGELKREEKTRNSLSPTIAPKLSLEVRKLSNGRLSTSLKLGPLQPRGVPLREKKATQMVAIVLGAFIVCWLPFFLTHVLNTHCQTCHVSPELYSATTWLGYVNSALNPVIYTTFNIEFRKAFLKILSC
Experiment [9] addresses T4, Cannabinoid receptor 1. In kind it is functional, cell-based.
Experiment [10] addresses Sodium-dependent serotonin transporter (Homo sapiens, UniProt P31645).
Experiment [11] addresses Beta-2 adrenergic receptor (Homo sapiens, UniProt P07550). In kind it is functional, cell-based.
Experiment [12] deals with 5-hydroxytryptamine receptor 2A (Homo sapiens, UniProt P28223). In kind it is functional, cell-based.
5-hydroxytryptamine receptor 2A, sequence (P28223 whole entry): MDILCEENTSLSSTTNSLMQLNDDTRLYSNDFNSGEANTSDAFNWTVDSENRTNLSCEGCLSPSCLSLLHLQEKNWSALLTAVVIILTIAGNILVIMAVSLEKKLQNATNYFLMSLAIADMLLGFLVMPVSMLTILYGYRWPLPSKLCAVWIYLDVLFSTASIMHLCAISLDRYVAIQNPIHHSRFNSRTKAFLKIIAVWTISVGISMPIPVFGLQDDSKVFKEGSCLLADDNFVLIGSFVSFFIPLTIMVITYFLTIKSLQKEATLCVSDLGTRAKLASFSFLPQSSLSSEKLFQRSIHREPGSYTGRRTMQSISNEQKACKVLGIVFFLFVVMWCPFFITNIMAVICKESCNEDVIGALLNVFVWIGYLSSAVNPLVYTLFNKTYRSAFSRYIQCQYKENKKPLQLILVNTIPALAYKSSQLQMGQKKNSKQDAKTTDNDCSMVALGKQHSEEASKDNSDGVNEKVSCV
In experiment [13] the target is T5, Peroxisome proliferator-activated receptor gamma (Homo sapiens, UniProt P37231).
T5 sequence (P37231 whole entry): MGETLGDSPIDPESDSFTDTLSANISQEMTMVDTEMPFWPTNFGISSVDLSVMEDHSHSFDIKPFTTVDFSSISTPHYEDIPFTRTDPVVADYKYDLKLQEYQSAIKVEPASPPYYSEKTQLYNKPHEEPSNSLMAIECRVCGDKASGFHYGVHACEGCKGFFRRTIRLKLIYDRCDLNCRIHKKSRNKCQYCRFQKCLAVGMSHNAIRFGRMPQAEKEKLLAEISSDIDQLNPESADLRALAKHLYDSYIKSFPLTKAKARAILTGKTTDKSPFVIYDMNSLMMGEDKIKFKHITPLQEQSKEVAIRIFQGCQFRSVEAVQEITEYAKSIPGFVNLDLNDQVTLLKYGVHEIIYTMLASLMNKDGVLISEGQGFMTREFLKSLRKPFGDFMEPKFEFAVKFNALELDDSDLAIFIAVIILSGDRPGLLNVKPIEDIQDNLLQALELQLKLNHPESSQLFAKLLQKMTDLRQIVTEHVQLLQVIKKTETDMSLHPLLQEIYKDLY
In kind it is functional.

The target in experiment [14] is Melanocortin receptor 4 (Homo sapiens, UniProt P32245).
Melanocortin receptor 4, sequence (P32245 whole entry): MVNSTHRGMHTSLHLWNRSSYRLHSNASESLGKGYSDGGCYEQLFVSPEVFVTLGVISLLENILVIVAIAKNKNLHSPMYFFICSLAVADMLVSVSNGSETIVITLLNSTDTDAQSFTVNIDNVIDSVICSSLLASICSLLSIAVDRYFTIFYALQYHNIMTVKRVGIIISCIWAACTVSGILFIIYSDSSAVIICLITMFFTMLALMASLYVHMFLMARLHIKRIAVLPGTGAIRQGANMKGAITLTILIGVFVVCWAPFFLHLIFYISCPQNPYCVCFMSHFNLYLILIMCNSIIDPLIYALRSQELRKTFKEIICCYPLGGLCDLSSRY

Molecules are shown by their SMILES. A value given as a limit tells only on which side of the number the result lay.
Further: assay procedure not described here.

Beta-2 adrenergic receptor, sequence (P07550 whole entry): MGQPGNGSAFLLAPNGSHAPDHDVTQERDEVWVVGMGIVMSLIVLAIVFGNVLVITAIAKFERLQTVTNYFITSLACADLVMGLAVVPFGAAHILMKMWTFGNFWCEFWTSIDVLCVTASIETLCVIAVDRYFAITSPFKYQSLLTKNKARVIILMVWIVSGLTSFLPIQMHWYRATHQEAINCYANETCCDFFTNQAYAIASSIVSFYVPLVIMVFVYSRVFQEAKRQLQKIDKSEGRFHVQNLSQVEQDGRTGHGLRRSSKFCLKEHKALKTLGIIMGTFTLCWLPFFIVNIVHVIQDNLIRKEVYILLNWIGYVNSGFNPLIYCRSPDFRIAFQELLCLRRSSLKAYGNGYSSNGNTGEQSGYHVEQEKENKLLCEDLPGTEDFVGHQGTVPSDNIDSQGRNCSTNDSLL
Sodium-dependent serotonin transporter, sequence (P31645 whole entry): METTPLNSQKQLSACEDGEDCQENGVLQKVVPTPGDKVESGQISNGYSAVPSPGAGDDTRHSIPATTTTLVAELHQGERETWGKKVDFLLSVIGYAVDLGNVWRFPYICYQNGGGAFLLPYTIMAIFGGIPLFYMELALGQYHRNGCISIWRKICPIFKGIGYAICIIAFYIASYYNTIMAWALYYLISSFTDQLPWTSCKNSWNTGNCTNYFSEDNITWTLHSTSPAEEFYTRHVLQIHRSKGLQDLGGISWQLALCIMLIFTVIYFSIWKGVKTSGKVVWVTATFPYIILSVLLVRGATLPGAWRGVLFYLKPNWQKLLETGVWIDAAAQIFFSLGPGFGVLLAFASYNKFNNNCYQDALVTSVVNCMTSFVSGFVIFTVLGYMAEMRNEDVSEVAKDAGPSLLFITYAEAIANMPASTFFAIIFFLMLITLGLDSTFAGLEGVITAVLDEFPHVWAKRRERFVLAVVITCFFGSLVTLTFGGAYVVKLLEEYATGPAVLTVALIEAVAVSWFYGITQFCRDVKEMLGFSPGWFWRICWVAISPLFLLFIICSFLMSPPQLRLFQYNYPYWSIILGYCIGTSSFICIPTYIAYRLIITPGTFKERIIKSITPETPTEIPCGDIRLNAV
T4 sequence (P21554 whole entry): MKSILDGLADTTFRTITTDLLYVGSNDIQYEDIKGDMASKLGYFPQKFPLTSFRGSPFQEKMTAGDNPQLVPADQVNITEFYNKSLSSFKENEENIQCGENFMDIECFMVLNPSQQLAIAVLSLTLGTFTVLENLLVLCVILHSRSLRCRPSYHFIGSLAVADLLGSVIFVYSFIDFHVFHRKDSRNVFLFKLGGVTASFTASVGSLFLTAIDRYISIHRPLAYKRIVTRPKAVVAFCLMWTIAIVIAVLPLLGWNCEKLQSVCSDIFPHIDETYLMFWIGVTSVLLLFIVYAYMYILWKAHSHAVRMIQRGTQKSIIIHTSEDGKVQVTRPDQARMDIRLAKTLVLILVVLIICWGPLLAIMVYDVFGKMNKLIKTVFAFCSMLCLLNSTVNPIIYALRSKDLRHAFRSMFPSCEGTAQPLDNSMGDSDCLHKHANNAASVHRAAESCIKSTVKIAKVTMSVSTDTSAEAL

Turning to `COc1ccc(/C=C/C(=O)Nc2ccccc2C(=O)O)cc1OC`, the half-maximal activity concentration (AC50) in [1] is 18 µM; in experiment [2], more than 30 µM; in [3], more than 30 µM; in [4], more than 30 µM; in experiment [5], more than 30 µM; in [6] it was more than 30 µM. Further, the concentration at half-maximal activity (AC50) in experiment [7] and in experiment [8] was more than 30 µM each time.
On to `O=C(CCCN1CCC(n2c(O)nc3ccccc32)CC1)c1ccc(F)cc1` [BENPERIDOL], for which the half-maximal activity concentration (AC50) in experiment [9] is more than 30 µM; in experiment [3], 7.1 µM; in experiment [10], more than 30 µM; in experiment [4], more than 30 µM; in [5], more than 30 µM; in experiment [11], more than 30 µM. Also, the values for the AC50 in experiment [12], in experiment [7] and in [8] were more than 30 µM, more than 30 µM and 0.0053 µM, respectively.
Regarding `CS(=O)(=O)OCCCCOS(C)(=O)=O` [BUSULFAN], the half-maximal activity concentration (AC50) in experiment [9], in experiment [13], in [4], in [5], in [11] and in experiment [7] was more than 30 µM in each case. Moreover, the half-maximal activity concentration (AC50) in experiment [8] is more than 30 µM.
With `C=CC1=C(C(=O)O)N2C(=O)[C@@H](NC(=O)/C(=N\OCC(=O)O)c3csc(N)n3)[C@H]2SC1` [CEFIXIME], the AC50 in [9], in experiment [10], in experiment [13], in [4], in experiment [5] and in [11] was more than 30 µM throughout. In addition, the AC50 in experiment [12] was more than 30 µM.
Turning to `CO[C@@]1(NC(=O)Cc2cccs2)C(=O)N2C(C(=O)O)=C(COC(N)=O)CS[C@@H]21` [CEFOXITIN], the AC50 in experiment [9], in experiment [10], in experiment [13], in experiment [4], in [5] and in [11] was more than 30 µM each time. Besides, the AC50 in [12], in [7] and in experiment [8] was more than 30 µM in each case.
On to `CCN(CC)CCOC(=O)c1ccc(N)cc1Cl` [CHLOROPROCAINE], for which the half-maximal activity concentration (AC50) in experiment [9], in experiment [10], in [13], in experiment [4], in [5] and in experiment [11] was more than 30 µM in each case. The half-maximal activity concentration (AC50) in experiment [12], in experiment [7] and in experiment [8] was more than 30 µM throughout.
In the case of `CC(C)(C)NCC(O)c1cc(Cl)c(N)c(Cl)c1` (stereo not drawn) [CLENBUTEROL], the concentration at half-maximal activity (AC50) was 13 µM in experiment [1]; more than 30 µM in experiment [9]; more than 30 µM in [14]; more than 30 µM in [3]; more than 30 µM in experiment [4]; more than 30 µM in [5]. The AC50 in [6], in [7] and in [8] was more than 30 µM throughout.
On to `COC(=O)N[C@@H](C)CNc1nccc(-c2cn(C(C)C)nc2-c2cc(Cl)cc(NS(C)(=O)=O)c2F)n1` [ENCORAFENIB], for which the AC50 in experiment [1], in experiment [14], in [3], in experiment [10], in experiment [4] and in experiment [5] was more than 30 µM each time. The AC50 in [6] was more than 30 µM; in experiment [12], more than 30 µM; in experiment [7] it was 23.1 µM; in experiment [8] it was more than 30 µM.
In the case of `O=C(O)c1ccccc1OP(=O)(O)O` [FOSFOSAL], the half-maximal activity concentration (AC50) in experiment [9], in experiment [10], in [13], in [4], in experiment [5] and in [11] was more than 30 µM throughout. Further, the concentration at half-maximal activity (AC50) in [12], in [7] and in [8] was more than 30 µM throughout.
Consider `CCCCCCOC(=O)CCC(=O)CN` [HEXAMINOLEVULINATE], for which the concentration at half-maximal activity (AC50) in experiment [9], in experiment [3], in experiment [10], in experiment [4], in experiment [5] and in experiment [11] was more than 30 µM in each case. For the same compound, the AC50 in experiment [12], in [7] and in experiment [8] was more than 30 µM throughout.
With `CCn1cc(C(=O)O)c(=O)c2cc(F)c(N3CCN(C)CC3)cc21` [PEFLOXACIN], the AC50 in experiment [9], in experiment [13], in experiment [4], in [5], in [11] and in experiment [7] was more than 30 µM in each case. Further, the activity in [8] was half-maximal at 3.6 µM (AC50).
In the case of `CCCNC(C)C(=O)Nc1ccccc1C` (stereo not drawn) [PRILOCAINE], the concentration at half-maximal activity (AC50) in experiment [9] was more than 30 µM; in experiment [13], more than 30 µM; in experiment [4], more than 10 µM; in experiment [5], more than 30 µM; in [11], more than 30 µM; in experiment [7] it was more than 30 µM. Further, the concentration at half-maximal activity (AC50) in experiment [8] is more than 30 µM.
With `Cc1ccc2c(-c3ccccc3)nc(=O)n(C(C)C)c2c1` [PROQUAZONE], the concentration at half-maximal activity (AC50) in experiment [9] was more than 30 µM; in [3] it was 15 µM; in experiment [10], more than 30 µM; in experiment [4], more than 30 µM; in experiment [5], more than 30 µM; in experiment [11], more than 30 µM. Also, the AC50 in experiment [12], in experiment [7] and in experiment [8] was more than 30 µM each time.
`COc1cc2c(Nc3ccc(Br)cc3F)ncnc2cc1OCC1CCN(C)CC1` [VANDETANIB]: the concentration at half-maximal activity (AC50) in experiment [9] is more than 30 µM; in experiment [10], 3.4 µM; in [13], more than 30 µM; in experiment [4] it was more than 30 µM; in [5], more than 30 µM; in experiment [11], more than 30 µM. For the same compound, the concentration at half-maximal activity (AC50) is more than 30 µM in experiment [12], more than 30 µM in experiment [7] and 20 µM in [8].

For the origin of these results see ChEMBL document CHEMBL5291721, “A preclinical secondary pharmacology resource illuminates target-adverse drug reaction associations of marketed drugs” (Nat Commun, 2023).
